Laboratory results: the NIST ThermoML archive (doi:10.1016/j.jct.2010.02.014)

Assay: cn = amount concentration of the nth substance listed, in mol/dm3
Settings: 298.15 K, 101.3 kPa, Liquid, Taylor dispersion method

- binary diffusion coefficient (c1 = 0): 8.26e-10 m2/s
- binary diffusion coefficient (c1 = 0.005): 8.25e-10 m2/s
- binary diffusion coefficient (c1 = 0.01): 8.23e-10 m2/s
- binary diffusion coefficient (c1 = 0.02): 8.21e-10 m2/s
Structure (SMILES): NNC(=O)c1ccncc1 [isonicotinic acid hydrazide] + O
